Earlier results on two compounds are cited in patent publication US7407975B2, “Epothilone derivatives, method for producing same and their pharmaceutical use” (priority 1997, dated 2008).

In the data set the test system is P-glycoprotein-forming multiresistant tumor lines. As to conditions: in comparison to taxol.

For the compound `C/C(=C\c1csc(C)n1)[C@@H]1C[C@@H]2O[C@@H]2CCC[C@H](C)[C@H](O)[C@@H](C)C(=O)C(C)(C)[C@@H](O)CC(=O)O1` [Epothilone A, epothilone A], the “activity against P-glycoprotein-forming multiresistant tumor lines” value is listed as “significantly higher activity”.
Consider `C/C(=C\c1csc(C)n1)[C@@H]1C[C@@H]2O[C@]2(C)CCC[C@H](C)[C@H](O)[C@@H](C)C(=O)C(C)(C)[C@@H](O)CC(=O)O1` [Epothilone B, epothilone B], for which the “activity against P-glycoprotein-forming multiresistant tumor lines” value is recorded as “significantly higher activity”.
